Data reported in PubChem BioAssay AID2060909 (Molecular Pharmacology Branch, DTP, NCI, 2025).

Tested on: 362531-283-R-J2-PDC complex spheroid viability
Assay: Anticancer human tumor 362531-283-R-J2-PDC patient-derived colon adenocarcinoma cell line growth inhibition [RAS]
Conditions: for IC50: curve of first compound; for viability, T/C: stronger effect = lower value
Method in brief: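 Agents were tested in combination matrices in half-log decrements from a top concentration at or near clinical Cmax (10 microM if undetermined). Targets were multi-cell spheroids of tumour lines plus HUVEC and MSC stromal cells.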
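Also: spheroids exposed to the agents for 7 days before readout.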
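For viability, T/C in this document: luminescence viability as percent of DMSO vehicle control wells.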

With `Nc1ccn(C2OC(CO)C(O)C2(F)F)c(=O)n1` (centres undefined) + C#Cc1c(F)ccc2cc(O)cc(-c3ncc4c(N5CC6CCC(C5)N6)nc(OCC56CCCN5CC(F)C6)nc4c3F)c12 the IC50 (second compound 0.0316 µM) was 170 nM, the IC50 (second compound 0.1 µM) was 164 nM and the IC50 (second compound 0.316 µM) was 118 nM. For the same molecule, the IC50 (second compound 1 µM) was 74.4 nM, the IC50 (second compound 3.16 µM) was 57.6 nM and the IC50 (second compound 10 µM) was under 3.16 nM. The viability, T/C (second compound 0.0316 µM, first compound 0.00316 µM) was 101%, the viability, T/C (second compound 0.0316 µM, first compound 0.01 µM) was 104% and the viability, T/C (second compound 0.0316 µM, first compound 0.0316 µM) was 81%. The viability, T/C (second compound 0.0316 µM, first compound 0.1 µM) was 72.6%, the viability, T/C (second compound 0.0316 µM, first compound 0.316 µM) was 20.5% and the viability, T/C (second compound 0.0316 µM, first compound 1 µM) was 26.8%. The viability, T/C (second compound 0.1 µM, first compound 0.00316 µM) was 104%, the viability, T/C (second compound 0.1 µM, first compound 0.01 µM) was 97.1% and the viability, T/C (second compound 0.1 µM, first compound 0.0316 µM) was 85.5%. For the same molecule, the viability, T/C (second compound 0.1 µM, first compound 0.1 µM) was 72.6%, the viability, T/C (second compound 0.1 µM, first compound 0.316 µM) was 15.2% and the viability, T/C (second compound 0.1 µM, first compound 1 µM) was 24.4%. For the same molecule, the viability, T/C (second compound 0.316 µM, first compound 0.00316 µM) was 92.5%, the viability, T/C (second compound 0.316 µM, first compound 0.01 µM) was 92.4% and the viability, T/C (second compound 0.316 µM, first compound 0.0316 µM) was 84.1%. The viability, T/C (second compound 0.316 µM, first compound 0.1 µM) was 56.4%, the viability, T/C (second compound 0.316 µM, first compound 0.316 µM) was 16.5% and the viability, T/C (second compound 0.316 µM, first compound 1 µM) was 17.5%. The viability, T/C (second compound 1 µM, first compound 0.00316 µM) was 76.9%, the viability, T/C (second compound 1 µM, first compound 0.01 µM) was 79.5% and the viability, T/C (second compound 1 µM, first compound 0.0316 µM) was 66.8%. The viability, T/C (second compound 1 µM, first compound 0.1 µM) was 45.5%, the viability, T/C (second compound 1 µM, first compound 0.316 µM) was 13.8% and the viability, T/C (second compound 1 µM, first compound 1 µM) was 17.5%. For the same molecule, the viability, T/C (second compound 3.16 µM, first compound 0.00316 µM) was 61.1%, the viability, T/C (second compound 3.16 µM, first compound 0.01 µM) was 62.6% and the viability, T/C (second compound 3.16 µM, first compound 0.0316 µM) was 61.3%. The viability, T/C (second compound 3.16 µM, first compound 0.1 µM) was 39.9%, the viability, T/C (second compound 3.16 µM, first compound 0.316 µM) was 14.8% and the viability, T/C (second compound 3.16 µM, first compound 1 µM) was 12.8%. It also gave a viability, T/C (second compound 10 µM, first compound 0.00316 µM) of 54.7%, a viability, T/C (second compound 10 µM, first compound 0.01 µM) of 45.1% and a viability, T/C (second compound 10 µM, first compound 0.0316 µM) of 41.7%. For the same molecule, the viability, T/C (second compound 10 µM, first compound 0.1 µM) was 15.1%, the viability, T/C (second compound 10 µM, first compound 0.316 µM) was 18.1% and the viability, T/C (second compound 10 µM, first compound 1 µM) was 16.2%.
In the case of `CC(C)n1nc(-c2ccc3oc(N)nc3c2)c2c(N)ncnc21` + CCn1c(-c2cccnc2C(C)OC)c2c3cc(ccc31)N1CCOC(CC(NC(=O)C(C(C)C)N(C)C(=O)C3(F)CCN(C(=O)C#CC(C)(C)N(C)C)CC3)C(=O)N3CCCC(N3)C(=O)OCC(C)(C)C2)C1, the IC50 (second compound 0.000949 µM) is reported as 70.8 nM, the IC50 (second compound 0.003 µM) is reported as 85.7 nM and the IC50 (second compound 0.00949 µM) is reported as 52.3 nM. The IC50 (second compound 0.03 µM) was 68.6 nM, the IC50 (second compound 0.0949 µM) was 73.3 nM and the IC50 (second compound 0.3 µM) was 65.4 nM. It also gave a viability, T/C (second compound 0.000949 µM, first compound 0.000316 µM) of 95.5%, a viability, T/C (second compound 0.000949 µM, first compound 0.001 µM) of 98.7% and a viability, T/C (second compound 0.000949 µM, first compound 0.00316 µM) of 108%. For the same molecule, the viability, T/C (second compound 0.000949 µM, first compound 0.01 µM) was 96.2%, the viability, T/C (second compound 0.000949 µM, first compound 0.0316 µM) was 75% and the viability, T/C (second compound 0.000949 µM, first compound 0.1 µM) was 39.4%. The viability, T/C (second compound 0.003 µM, first compound 0.000316 µM) was 99.9%, the viability, T/C (second compound 0.003 µM, first compound 0.001 µM) was 92.8% and the viability, T/C (second compound 0.003 µM, first compound 0.00316 µM) was 102%. It also gave a viability, T/C (second compound 0.003 µM, first compound 0.01 µM) of 92.2%, a viability, T/C (second compound 0.003 µM, first compound 0.0316 µM) of 74.5% and a viability, T/C (second compound 0.003 µM, first compound 0.1 µM) of 46.2%. It also gave a viability, T/C (second compound 0.00949 µM, first compound 0.000316 µM) of 98.9%, a viability, T/C (second compound 0.00949 µM, first compound 0.001 µM) of 108% and a viability, T/C (second compound 0.00949 µM, first compound 0.00316 µM) of 92.9%. The viability, T/C (second compound 0.00949 µM, first compound 0.01 µM) was 114%, the viability, T/C (second compound 0.00949 µM, first compound 0.0316 µM) was 57.3% and the viability, T/C (second compound 0.00949 µM, first compound 0.1 µM) was 40.6%. The viability, T/C (second compound 0.03 µM, first compound 0.000316 µM) was 103%, the viability, T/C (second compound 0.03 µM, first compound 0.001 µM) was 93% and the viability, T/C (second compound 0.03 µM, first compound 0.00316 µM) was 107%. The viability, T/C (second compound 0.03 µM, first compound 0.01 µM) was 95.5%, the viability, T/C (second compound 0.03 µM, first compound 0.0316 µM) was 63.9% and the viability, T/C (second compound 0.03 µM, first compound 0.1 µM) was 43.2%. The viability, T/C (second compound 0.0949 µM, first compound 0.000316 µM) was 90.4%, the viability, T/C (second compound 0.0949 µM, first compound 0.001 µM) was 93.9% and the viability, T/C (second compound 0.0949 µM, first compound 0.00316 µM) was 95.5%. For the same molecule, the viability, T/C (second compound 0.0949 µM, first compound 0.01 µM) was 106%, the viability, T/C (second compound 0.0949 µM, first compound 0.0316 µM) was 68.7% and the viability, T/C (second compound 0.0949 µM, first compound 0.1 µM) was 43.1%. The viability, T/C (second compound 0.3 µM, first compound 0.000316 µM) was 87.9%, the viability, T/C (second compound 0.3 µM, first compound 0.001 µM) was 105% and the viability, T/C (second compound 0.3 µM, first compound 0.00316 µM) was 103%. For the same molecule, the viability, T/C (second compound 0.3 µM, first compound 0.01 µM) was 103%, the viability, T/C (second compound 0.3 µM, first compound 0.0316 µM) was 71.8% and the viability, T/C (second compound 0.3 µM, first compound 0.1 µM) was 37.3%.
